ChEMBL document CHEMBL4190389, “Synthesis and activity of di- or trisubstituted N-(phenoxyalkyl)- or N-{2-[2-(phenoxy)ethoxy]ethyl}piperazine derivatives on the central nervous system” (Bioorg Med Chem Lett, 2018)

What was measured:
[1] = target: 5-hydroxytryptamine receptor 2A (Homo sapiens, UniProt P28223); assay: Displacement of [3H]-ketanserin from recombinant human 5-HT2A receptor after 60 mins by liquid scintillation counting method
[2] = target: T1, 5-hydroxytryptamine receptor 1A (Homo sapiens, UniProt P08908); assay: Displacement of [3H]8-OH-DPAT from human 5-HT1A receptor expressed in HEK293 cell membranes after 1 hr
T1 sequence (P08908 whole entry): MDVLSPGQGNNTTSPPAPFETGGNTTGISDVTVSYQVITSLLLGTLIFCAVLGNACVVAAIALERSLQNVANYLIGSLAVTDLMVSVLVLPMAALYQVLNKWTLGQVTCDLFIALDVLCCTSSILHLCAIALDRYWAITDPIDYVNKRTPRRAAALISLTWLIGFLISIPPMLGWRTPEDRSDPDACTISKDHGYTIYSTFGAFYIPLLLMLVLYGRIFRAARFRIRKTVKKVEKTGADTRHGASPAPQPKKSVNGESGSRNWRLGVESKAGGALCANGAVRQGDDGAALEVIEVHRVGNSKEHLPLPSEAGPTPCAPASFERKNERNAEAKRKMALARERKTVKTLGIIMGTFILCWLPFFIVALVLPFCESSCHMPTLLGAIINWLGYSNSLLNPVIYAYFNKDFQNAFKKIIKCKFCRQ

Mus musculus = assay: Antidepressant-like activity in ip dosed Albino Swiss CD-1 mouse assessed as decrease in immobility time administered […] prior to test measured for last 4 mins of 6 mins observation by forced swim test (reference value: 153.9 to 201.9 secs); format: functional
[3] = target: T2, 5-hydroxytryptamine receptor 1A (Rattus norvegicus, UniProt P19327); assay: Displacement of [3H]8-OH-DPAT from Wistar rat 5-HT1A receptor after 20 mins by liquid scintillation counting method
T2 sequence (P19327 whole entry): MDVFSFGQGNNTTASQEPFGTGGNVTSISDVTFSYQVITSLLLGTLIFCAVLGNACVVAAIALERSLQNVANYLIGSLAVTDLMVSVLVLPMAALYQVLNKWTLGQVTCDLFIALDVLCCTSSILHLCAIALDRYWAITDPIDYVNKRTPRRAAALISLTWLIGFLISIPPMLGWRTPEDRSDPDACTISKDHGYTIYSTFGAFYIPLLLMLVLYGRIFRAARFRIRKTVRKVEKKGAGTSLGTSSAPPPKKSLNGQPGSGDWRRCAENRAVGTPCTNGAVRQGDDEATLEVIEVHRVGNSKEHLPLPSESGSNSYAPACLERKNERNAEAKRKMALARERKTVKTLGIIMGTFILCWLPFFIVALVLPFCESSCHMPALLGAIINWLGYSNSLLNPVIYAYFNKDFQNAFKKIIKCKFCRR

[4] = target: 5-hydroxytryptamine receptor 7 (Homo sapiens, UniProt P34969); assay: Displacement of [3H]-LSD from recombinant human 5-HT7 receptor after 60 mins by liquid scintillation counting method
Chain of 5-hydroxytryptamine receptor 7 (P34969 whole entry): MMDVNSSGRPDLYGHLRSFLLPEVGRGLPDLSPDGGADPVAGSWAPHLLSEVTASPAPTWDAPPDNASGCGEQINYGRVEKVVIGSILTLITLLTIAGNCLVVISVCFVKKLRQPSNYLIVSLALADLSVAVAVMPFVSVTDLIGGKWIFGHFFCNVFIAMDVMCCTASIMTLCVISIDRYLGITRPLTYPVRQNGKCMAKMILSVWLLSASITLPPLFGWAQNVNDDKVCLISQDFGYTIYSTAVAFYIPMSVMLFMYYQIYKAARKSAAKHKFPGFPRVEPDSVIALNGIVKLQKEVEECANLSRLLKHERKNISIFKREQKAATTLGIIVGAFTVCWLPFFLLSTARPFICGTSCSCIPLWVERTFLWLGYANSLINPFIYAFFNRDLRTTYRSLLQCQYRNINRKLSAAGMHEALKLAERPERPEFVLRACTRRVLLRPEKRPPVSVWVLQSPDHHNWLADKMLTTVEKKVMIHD

[5] = target: T3, Adrenergic receptor alpha-2 (Rattus norvegicus, UniProt P22086+P19328+P22909); assay: Displacement of [3H]clonidine from rat cerebral cortex adrenergic receptor alpha2 by liquid scintillation counting method
T3 sequence (P22086 whole entry): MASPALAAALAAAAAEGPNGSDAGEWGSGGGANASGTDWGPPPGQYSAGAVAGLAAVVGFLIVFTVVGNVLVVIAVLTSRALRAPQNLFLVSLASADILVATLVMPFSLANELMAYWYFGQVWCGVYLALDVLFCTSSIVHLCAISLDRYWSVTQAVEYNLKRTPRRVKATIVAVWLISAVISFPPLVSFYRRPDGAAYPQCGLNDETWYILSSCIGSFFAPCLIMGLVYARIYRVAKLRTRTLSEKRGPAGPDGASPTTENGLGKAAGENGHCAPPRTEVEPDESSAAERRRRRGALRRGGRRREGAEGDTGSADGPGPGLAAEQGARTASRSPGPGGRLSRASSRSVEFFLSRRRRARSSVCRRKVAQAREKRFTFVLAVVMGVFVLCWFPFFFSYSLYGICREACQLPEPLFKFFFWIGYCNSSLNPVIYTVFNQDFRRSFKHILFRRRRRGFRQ
T3 sequence (P19328 whole entry): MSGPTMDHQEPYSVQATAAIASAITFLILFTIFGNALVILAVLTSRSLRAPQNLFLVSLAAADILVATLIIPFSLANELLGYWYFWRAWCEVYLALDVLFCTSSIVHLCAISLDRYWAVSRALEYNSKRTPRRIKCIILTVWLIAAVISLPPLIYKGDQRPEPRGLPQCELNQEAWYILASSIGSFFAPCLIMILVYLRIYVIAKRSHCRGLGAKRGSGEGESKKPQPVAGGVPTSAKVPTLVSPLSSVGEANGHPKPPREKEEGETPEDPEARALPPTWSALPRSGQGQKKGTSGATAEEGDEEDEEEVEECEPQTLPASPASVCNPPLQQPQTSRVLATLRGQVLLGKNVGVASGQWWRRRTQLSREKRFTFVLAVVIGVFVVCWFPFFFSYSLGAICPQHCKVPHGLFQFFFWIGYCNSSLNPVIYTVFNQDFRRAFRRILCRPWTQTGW
T3 sequence (P22909 whole entry): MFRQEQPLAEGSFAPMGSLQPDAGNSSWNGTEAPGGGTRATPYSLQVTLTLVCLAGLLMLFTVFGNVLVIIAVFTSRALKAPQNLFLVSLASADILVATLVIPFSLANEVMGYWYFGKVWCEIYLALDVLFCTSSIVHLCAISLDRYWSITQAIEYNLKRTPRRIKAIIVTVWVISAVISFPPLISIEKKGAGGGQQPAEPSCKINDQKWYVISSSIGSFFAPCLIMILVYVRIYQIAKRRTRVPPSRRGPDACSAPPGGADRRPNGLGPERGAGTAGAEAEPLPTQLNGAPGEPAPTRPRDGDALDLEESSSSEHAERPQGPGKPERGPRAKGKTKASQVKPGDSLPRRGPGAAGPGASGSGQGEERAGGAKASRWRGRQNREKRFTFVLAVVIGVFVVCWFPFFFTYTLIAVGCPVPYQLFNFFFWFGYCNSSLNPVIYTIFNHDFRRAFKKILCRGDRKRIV

Chain of 5-hydroxytryptamine receptor 2A (P28223 whole entry): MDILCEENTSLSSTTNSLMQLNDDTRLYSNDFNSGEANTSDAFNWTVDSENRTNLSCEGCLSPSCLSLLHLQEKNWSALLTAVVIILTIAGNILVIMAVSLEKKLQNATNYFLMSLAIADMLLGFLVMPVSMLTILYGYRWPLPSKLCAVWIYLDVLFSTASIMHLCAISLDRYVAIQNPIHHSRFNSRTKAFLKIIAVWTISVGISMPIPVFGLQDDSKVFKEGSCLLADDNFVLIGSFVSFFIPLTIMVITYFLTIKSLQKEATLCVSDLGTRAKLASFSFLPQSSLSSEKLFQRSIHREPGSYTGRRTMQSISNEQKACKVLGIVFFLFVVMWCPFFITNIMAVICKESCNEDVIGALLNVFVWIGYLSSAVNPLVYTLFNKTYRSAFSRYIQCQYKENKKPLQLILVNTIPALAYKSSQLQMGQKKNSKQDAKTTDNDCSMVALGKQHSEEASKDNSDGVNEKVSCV

Ki [1] [nM] | Ki [2] [nM] | Ki [3] [nM] | Ki [4] [nM] | Ki [5] [nM] | SMILES | ED (Mus musculus) [mg/kg]
2830 | < 1 | – | – | – | COc1ccccc1N1CCN(CCCOc2c(C)cc(C)cc2C)CC1.Cl | 5
192 | – | 0.7 | 26 | 341 | COc1ccccc1N1CCN(CCCOc2c(C)cccc2C)CC1.Cl | –
